Earlier results in article PMC6838683, “Discovery of Human Signaling Systems: Pairing Peptides to G Protein-Coupled Receptors” (Cell, 2019).
Like-named read-outs stand apart in the source and are kept apart here. No end group written: not given here.

Test system: human GPCRs
Parameters: method as in Guide to Pharmacology database
Settings: max reported value, ref Guide to Pharmacology database, cited from earlier work
Description: Supplement mmc1.xlsx, sheet "HumanGPCRLigands" | column: pKi_value; pKd_value; pEC50_value; pIC50_value

[1] = receptor gipr_human (GIPR, P48546)
[2] = receptor ghsr_human (GHSR, Q92847)
[3] = receptor glp1r_human (GLP1R, P43220)
[4] = receptor glp2r_human (GLP2R, O95838)
[5] = receptor kissr_human (KISS1R, Q969F8)
[6] = receptor nmur1_human (NMUR1, Q9HB89)
[7] = receptor nmur2_human (NMUR2, Q9GZQ4)
[8] = receptor npbw2_human (NPBWR2, P48146)
[9] = receptor npbw1_human (NPBWR1, P48145)
[10] = receptor NPY4R (npy4r_human, P50391)
[11] = receptor NPY5R (npy5r_human, Q15761)
[12] = receptor OPRL1 (oprx_human, P41146)
[13] = receptor RXFP1 (rxfp1_human, Q9HBX9)
[14] = receptor RXFP2 (rxfp2_human, Q8WXD0)
[15] = receptor RXFP3 (rl3r1_human, Q9NSD7)
[16] = receptor RXFP4 (rl3r2_human, Q8TDU9)
[17] = receptor crfr2_human (CRHR2, Q13324)
[18] = receptor UTS2R (ur2r_human, Q9UKP6)
[19] = receptor OPRK1 (oprk_human, P41145)

For “endothelin-2 (CSCSSWLDKECVYFCHLDIIW; ends and bridges not checked; cysteine pairing not given here; UniProt P20800 49-69, looked up)”, the pIC50_value (receptor ednra_human (EDNRA, P25101)) is listed as 8.2.

For endothelin-3, the pKd_value (receptor ednrb_human (EDNRB, P24530)) is given as 11.5.

For “galanin-like peptide (APAHRGRGGWTLNSAGYLLGPVLHLPQMGDQDGKRETALEILDLWKAIDGLPYSHPPQPS; not fully specified; UniProt Q9UBC7 25-84, looked up)”, the pIC50_value (receptor galr1_human (GALR1, P47211)) is listed as 7.1, the pIC50_value (receptor galr2_human (GALR2, O43603)) is listed as 7.7 and the pIC50_value (receptor galr3_human (GALR3, O60755)) is listed as 8.

For gastric inhibitory polypeptide, the pKd_value [1] is given as 8.7 and the pKi_value [1] is given as 9.1.

In the case of “ghrelin (GSSFLSPEHQRVQQRKESKKPPAKLQPR; not fully specified; ends and bridges not checked; UniProt Q9UBU3 24-51, looked up)”, the pEC50_value [2] is listed as 7.5, the pKd_value [2] is listed as 9.4 and the pKi_value [2] is listed as 8.1.

In the case of glucagon, the pKi_value [3] is listed as 7 and the pEC50_value (receptor glr_human (GCGR, P47871)) is listed as 9.

In the case of glucagon-like peptide 1-(7-36) amide, the pKi_value [3] is given as 9.2.

In the case of glucagon-like peptide 2, the pIC50_value [4] is listed as 8.5.

In the case of “glucagon-like peptide 2-(3-33) (DGSFSDEMNTILDNLAARDFINWLIQTKITD; Glucagon-like peptide 2; UniProt P01275 148-178, looked up, fragment)”, the pIC50_value [4] is listed as 7.4.

In the case of humanin, the pEC50_value (receptor fpr3_human (FPR3, P25089)) is given as 8.9.

For kallidin, the pKi_value (receptor bkrb1_human (BDKRB1, P46663)) is listed as 8.9 and the pIC50_value (receptor bkrb2_human (BDKRB2, P30411)) is listed as 9.3.

In the case of “kisspeptin-13 (LPNYNWNSFGLRF; not fully specified; ends and bridges not checked; UniProt Q15726 109-121, looked up)”, the pKi_value [5] is given as 8.4.

In the case of “kisspeptin-14 (DLPNYNWNSFGLRF; not fully specified; ends and bridges not checked; UniProt Q15726 108-121, looked up)”, the pKi_value [5] is given as 8.8.

In the case of “kisspeptin-54 (GTSLSPPPESSGSPQQPGLSAPHSRQIPAPQGAVLVQREKDLPNYNWNSFGLRF; ends and bridges not checked; UniProt Q15726 68-121, looked up)”, the pKi_value [5] is listed as 9.5.

In the case of lysophosphatidylinositol, the pEC50_value (receptor GPR55 (gpr55_human, Q9Y2T6)) is listed as 7.3.

In the case of melanin-concentrating hormone, the pKi_value (receptor mchr1_human (MCHR1, Q99705)) is listed as 10.5 and the pIC50_value (receptor mchr2_human (MCHR2, Q969V1)) is listed as 9.2.

In the case of “neuromedin S-33 (ILQRGSGTAAVDFTKKDHTATWGRPFFLFRPRN; not fully specified; ends and bridges not checked; UniProt Q5H8A3 109-141, looked up)”, the pEC50_value [6] is given as 10.2, the pIC50_value [6] is given as 10 and the pEC50_value [7] is given as 10. For the same molecule, the pIC50_value [7] was 9.2.

In the case of “neuromedin U-25 (FRVDEEFQSPFASQSRGYFLFRPRN-NH2)”, the pEC50_value [6] is listed as 9.4, the pKi_value [6] is listed as 9.5 and the pEC50_value [7] is listed as 9.4. The pKi_value [7] was 9.6.

In the case of “neuropeptide B-23 (WYKPAAGHSSYSVGRAAGLLSGL)”, the pIC50_value [8] is given as 8.4.

In the case of “neuropeptide B-29 (WYKPAAGHSSYSVGRAAGLLSGLRRSPYA; not fully specified; UniProt Q8NG41 25-53, looked up)”, the pIC50_value (receptor NPBWR2 (npbw2_human, P48146)) is given as 9 and the pIC50_value [9] is given as 9.5.

For neuropeptide FF, the pKi_value (receptor npff1_human (NPFFR1, Q9GZQ6)) is listed as 9.9 and the pKi_value (receptor npff2_human (NPFFR2, Q9Y5X5)) is listed as 9.7.

In the case of “neuropeptide W-23 (WYKHVASPRYHTVGRAAGLLMGL)”, the pIC50_value [9] is listed as 10 and the pIC50_value [8] is listed as 9.6.

In the case of “neuropeptide W-30 (WYKHVASPRYHTVGRAAGLLMGLRRSPYLW; not fully specified; UniProt Q8N729 33-62, looked up)”, the pIC50_value [9] is listed as 10.6 and the pIC50_value [8] is listed as 9.4.

For neuropeptide Y, the pKi_value [10] is given as 8 and the pKi_value [11] is given as 9.1.

In the case of nociceptin/orphanin FQ, the pEC50_value [12] is listed as 9.8 and the pKi_value [12] is listed as 10.4.

In the case of “orexin-A (QPLPDCCRQKTCSCRLYELLHGAGNHAAGILTL; not fully specified; ends and bridges not checked; UniProt O43612 34-66, looked up)”, the pEC50_value (receptor HCRTR1 (ox1r_human, O43613)) is listed as 10.2 and the pEC50_value (receptor HCRTR2 (ox2r_human, O43614)) is listed as 10.

For pancreatic polypeptide, the pKi_value [10] is listed as 10.9 and the pKi_value [11] is listed as 8.

For relaxin, the pEC50_value [13] is given as 10.4, the pKi_value [13] is given as 10.2 and the pEC50_value [14] is given as 9.1. For the same molecule, the pKi_value [14] was 8.5, the pEC50_value [15] was 8.4 and the pKd_value [15] was 10.

For relaxin-3, the pKi_value [13] is listed as 8, the pKi_value [14] is listed as 7 and the pEC50_value [15] is listed as 9.9. The pIC50_value [15] was 9.6, the pKi_value [15] was 8.9 and the pEC50_value [16] was 9. The pIC50_value [16] was 9 and the pKi_value [16] was 9.

For secretin, the pEC50_value (receptor sctr_human (SCTR, P47872)) is given as 9.7.

For “urocortin 1 (DNPSLSIDLTFHLLRTLLELARTQSQRERAEQNRIIFDSV; ends and bridges not checked; UniProt P55089 83-122, looked up)”, the pKd_value (receptor crfr1_human (CRHR1, P34998)) is given as 9.5 and the pKd_value [17] is given as 9.6.

In the case of “urocortin 2 (IVLSLDVPIGLLQILLEQARARAAREQATTNARILARVGHC; ends and bridges not checked; UniProt Q96RP3 72-112, looked up)”, the pKd_value [17] is listed as 8.6.

For “urocortin 3 (FTLSLDVPTNIMNLLFNIAKAKNLRAQAAANAHLMAQI; not fully specified; ends and bridges not checked; UniProt Q969E3 120-157, looked up)”, the pKd_value [17] is listed as 8.

In the case of urotensin II-related peptide, the pIC50_value [18] is listed as 8.6 and the pKd_value [18] is listed as 9.6.

In the case of “α-neoendorphin (YGGFLRKYPK; Alpha-neoendorphin; UniProt P01213 175-184, looked up)”, the pKi_value [19] is given as 10.2.

In the case of β-CGRP, the pEC50_value (receptor calcr_human (CALCR), Calcitonin receptors, Class B1 (Secretin)) is given as 7.2.

In the case of β-endorphin, the pKi_value (receptor OPRD1 (oprd_human, P41143)) is listed as 8.3 and the pKi_value [19] is listed as 7.9.

In the case of β-neoendorphin (YGGFLRKYP), the pKi_value [19] is listed as 7.9.

For γ-MSH, the pKd_value (receptor mc3r_human (MC3R, P41968)) is listed as 8.5.

B1: INSL3 (protein, UniProt P51460 21-55; P51460 106-131, looked up)
Insulin-like 3 B chain: LGPAPTPEMREKLCGHHFVRALVRVCGGPRWSTEA
Insulin-like 3 A chain: AAATNPARYCCLSGCTQQDLLTLCPY
In the case of B1, the pKd_value [14] is listed as 10.4 and the pKi_value [14] is listed as 9.7.

B2: annexin I (protein, UniProt P04083 2-346, looked up)
Annexin A1: AMVSEFLKQAWFIENEEQEYVQTVKSSKGGPGSAVSPYPTFNPSSDVAALHKAIMVKGVDEATIIDILTKRNNAQRQQIKAAYLQETGKPLDETLKKALTGHLEEVVLALLKTPAQFDADELRAAMKGLGTDEDTLIEILASRTNKEIRDINRVYREELKRDLAKDITSDTSGDFRNALLSLAKGDRSEDFGVNEDLADSDARALYEAGERRKGTDVNVFNTILTTRSYPQLRRVFQKYTKYSKHDMNKVLDLELKGDIEKCLTAIVKCATSKPAFFAEKLHQAMKGVGTRHKALIRIMVSRSEIDMNDIKAFYQKMYGISLCQAILDETKGDYEKILVALCGGN
For B2, the pKd_value (receptor fpr2_human (FPR2, P25090)) is listed as 6.5.

B3: large neuromedin N (protein, UniProt P30990 24-148, looked up)
Large neuromedin N: SDSEEEMKALEADFLTNMHTSKISKAHVPSWKMTLLNVCSLVNNLNSPAEETGEVHEEELVARRKLPTALDGFSLEAMLTIYQLHKICHSRAFQHWELIQEDILDTGNDKNGKEEVIKRKIPYIL
modifications: Large neuromedin N
For B3, the pIC50_value (receptor NTSR1 (ntr1_human, P30989)) is given as 7.4.
